What was measured:
[1] = system: OXA-induced cold hypersensitivity in male mice; assay: Oxaliplatin-induced peripheral neuropathy, acetone drop test; format: in vivo, mouse
Method: For the OXA-induced peripheral neuropathy assay, OXA was […] injected on days 1, 3 and 5 to male mice, at a 6 mg/kg dose, to induce hypersensitivity to cold, as monitored by the acetone drop test (Figure 6).
For the experiments, 6–8 weeks C57 male mice (≈30g) (Harlam, Holland) were used. All experiments were approved by the Institutional Animal and Ethical Committee of the Universidad Miguel Hernandez and Comunidad Valencian ethical committees (2021/VSC/PEA/0089) where experiments were conducted and they were in accordance with the guidelines of the Economic European Community and the Committee for Research and Ethical Issues of the International Association for the Study of Pain. All parts of the study concerning animal care were performed under the control of veterinarians. Experiments were performed blinded for NTG and compound treatment.
Oxaliplatin (OXA, Tocris, Bristol, UK) was used to induce peripheral neuropathy and was dissolved in water with gentle warming as formerly described. OXA was intraperitoneally injected on days 1, 3 and 5 at a 6 mg/kg dose. […] Cold chemical sensitivity was assessed using the acetone drop test. […] Positive nociceptive responses (licking time in seconds) were recorded with a digital stopwatch during 20 s (cut-off). Acetone was applied twice in an interval of 5 min between each application and the mean was calculated.

[2] = target: T1, hCB2 (Homo sapiens, UniProt P34972); assay: Radioligand binding assay, CHO cells, hCB2
T1 construct: host or cells: CHO
T1 sequence (P34972 whole entry): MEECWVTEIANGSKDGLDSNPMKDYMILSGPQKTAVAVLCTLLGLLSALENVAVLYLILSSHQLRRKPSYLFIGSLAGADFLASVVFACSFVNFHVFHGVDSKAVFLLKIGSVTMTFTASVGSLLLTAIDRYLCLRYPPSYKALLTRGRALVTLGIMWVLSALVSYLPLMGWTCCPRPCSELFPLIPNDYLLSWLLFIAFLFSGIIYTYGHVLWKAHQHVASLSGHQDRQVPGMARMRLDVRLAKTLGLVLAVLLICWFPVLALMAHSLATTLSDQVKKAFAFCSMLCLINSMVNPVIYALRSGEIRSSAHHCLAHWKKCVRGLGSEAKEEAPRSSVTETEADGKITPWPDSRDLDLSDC
Method: (§1) To define whether β–lactam derivative RGM8-51 could bind to CGRPR, CB2 and M3 receptors, in vitro binding assays were performed, using CHO cell lines transfected with these receptors. The degree of binding was determined by using specific radioligands for each receptor (Table 2, footnote).
(§2) These studies were subcontracted to Eurofins-CEREP or Eurofins-PANLABS. Briefly, agonists and antagonist assays were performed in cell cultures overexpressing the corresponding channel (CHO: TRPV1 and TRPA1; HEK293: TRPV3 and ASIC3). In vitro pharmacology, cellular channel functional assays: the compound was prepared in assay buffer to the final concentration, 10 μM. […] The agonist assay was conducted on fluorimeter instruments where the test compound, vehicle controls, and reference agonist were added to the assay plate after a fluorescence baseline was established. […] For the antagonist assay, the compound was pre-incubated for five minutes at room temperature, and then challenged with the EC80 concentration of the reference agonist after establishment of a fluorescence baseline. […] Binding assay results are expressed as a percent of control specific binding. […] Aqueous solubility (μM) was determined by comparing the peak area of the principal peak in a calibration standard (200 μM) containing organic solvent (methanol/water, 60/40, v/v) with the peak area of the corresponding peak in a buffer sample. […]

[3] = target: T2, hM3 (Homo sapiens, UniProt P20309); assay: Radioligand binding assay, CHO cells, hM3; settings: radioligand [3H]4-DMAP
T2 construct: host or cells: CHO
T2 sequence (P20309 whole entry): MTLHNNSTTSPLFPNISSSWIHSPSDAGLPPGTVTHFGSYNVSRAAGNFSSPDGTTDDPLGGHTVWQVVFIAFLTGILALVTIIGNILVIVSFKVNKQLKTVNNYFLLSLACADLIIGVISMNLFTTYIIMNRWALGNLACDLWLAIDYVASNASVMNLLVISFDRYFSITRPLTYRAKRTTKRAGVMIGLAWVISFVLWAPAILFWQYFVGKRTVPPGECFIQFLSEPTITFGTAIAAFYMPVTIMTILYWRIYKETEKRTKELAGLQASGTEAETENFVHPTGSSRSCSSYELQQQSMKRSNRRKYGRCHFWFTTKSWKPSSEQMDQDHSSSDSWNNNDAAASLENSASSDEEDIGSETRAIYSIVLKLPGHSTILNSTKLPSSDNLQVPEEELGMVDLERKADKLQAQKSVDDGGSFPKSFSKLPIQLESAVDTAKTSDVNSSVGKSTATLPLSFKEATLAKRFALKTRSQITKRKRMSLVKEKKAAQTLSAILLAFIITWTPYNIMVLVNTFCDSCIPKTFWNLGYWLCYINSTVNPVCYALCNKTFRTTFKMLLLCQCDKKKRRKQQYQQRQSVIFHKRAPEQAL
Method: as §1, §2

C[C@@H]1C(=O)N(C[C@H](Cc2ccccc2)N(Cc2ccccc2)Cc2ccccc2)[C@]1(Cc1ccccc1)C(=O)OC(C)(C)C [RGM8-51, 4(S)-Benzyl-3S-methyl-4-(tert-butoxy)carbonyl-1-[(2′S-dibenzylamino-3′-phenyl)prop-1′-yl]-2-oxoazetidine]
OXA-induced cold hypersensitivity (cold-induced paw licking) ([1]; 0.1 µg i.pl., sustained activity from 15 to 30 min): still highly active | OXA-induced cold hypersensitivity (cold-induced paw licking) ([1]; 1 μg i.pl., significant at 15 min, peak effect from 30 to 60 min): attenuates the cold-induced paw licking in a significant manner | Binding hCB2 (%), inhibition of specific binding ([2]; 10 μM, radioligand [3H]WIN 55212-2): did not show significant affinity | inhibition at 10 µM ([2]; radioligand [3H]WIN 55212-2, read-out: Binding hCB2 (%), inhibition of specific binding): 7.3 ± 0.3% | Binding hM3 (%), inhibition of specific binding ([3]; 10 μM): did not show significant affinity | inhibition at 10 µM ([3]; read-out: Binding hM3 (%), inhibition of specific binding): -4.1 ± 3.1%
